Assay results reported in patent US8084453B2, “Alkyl substituted indoloquinoxalines” (Oxypharma AB, priority 2004, dated 2011).

Key:
[1] = test system: mAB/LPS-induced arthritic mice; assay: mAb/LPS-induced arthritis in mice, hind paw thickness; format: in vivo; conditions: for Mean group values of hind paw thickness, day 0: day 0 (base-line); for Mean group values of hind paw thickness, day 0 / Mean group values of hind paw thickness, day 7 / Mean group values of hind paw thickness, day 9 / Mean group values of hind paw thickness, day 11: once daily (day 0-5) repeated subcutaneous administration; for Hind paw thickness vs vehicle control (corn oil): comparison with vehicle control (corn oil)
Description: Collagen-induced arthritis (CIA) in mice is widely used as an experimental model for rheumatoid arthritis (RA) in humans. CIA is mediated by autoantibodies which bind to a particular region of type II collagen, such as CB11 (CNBr-digested fragment of type II collagen).
Antibody-mediated CIA can be induced by iv injection of a combination of 4 different monoclonal antibodies (Arthrogen-CIA® mAb) generated by Arthrogen-CIA® mouse B-hybridoma cell lines.
Three of the mAbs recognize autoantigenic epitopes clustered within an 84 amino acid residue fragment, LyC2 (the smallest arthritogenic fragment of type II collagen) of CB11 and the fourth mAb reacts with LyC1 (FIG. 1). Importantly, all 4 mAbs recognize the conserved epitopes shared by various species of type II collagen and crossreact with homologous and heterologous type II collagen.
A cocktail of 4 monoclonal antibodies are used. These arthritogenic mAbs alone or in combination with bacterial LPS can induce severe arthritis within days instead of weeks (classic CIA model).
(A) A cocktail of 4 monoclonal antibodies to type II collagen (2 mg) is injected intravenously on day 0 followed by an intraperitoneal injection of LPS (50 μg) on day 3. Arthritis will develop on day 4 and reach its peak on day 7-8. The therapeutic effects of test compounds will be determined on day 7. […] formation and bone degradation will be more significant on day 14 and day 21 (not shown). (B) Authentic collagen-induced arthritis.
Measurement of arthritis. Hind paw thickness, left and right of each animal (9 animals in each group) was measured in mm on study days 0 (base-line), 7, 9 and 11 using a Mitutoyo Electronic Digital Caliper. […] Dexamethasone is a cortisone which suppresses inflammation and normal immune response, and is used systemically and locally to treat inflammatory disorders. Patients are for safety reasons treated with short courses of cortisones to bring the inflammation under control in the window between starting the DMARD or DMARD combination and the likely response time.
FIG. 3. Mean group values (mm) of hind paw thickness measured throughout the entire 11-day observation period in the mAB/LPS-induced arthritic mice following once daily (day 0-5) repeated subcutaneous administration of B-220 analogues, Dexamethasone (positive control) or corn oil (negative control).

[2] = test system: collagen-induced arthritis (CIA) model; conditions: prior art patents; cited from earlier work
EAE model = conditions: prior art patents; cited from earlier work

SMILES	Mean group values of hind paw thickness, day 0 [1] [mm]	Mean group values of hind paw thickness, day 7 [1] [mm]	Mean group values of hind paw thickness, day 9 [1] [mm]	Mean group values of hind paw thickness, day 11 [1] [mm]	treating RA in the collagen-induced arthritis (CIA) model [2]	treating MS in the EAE model (EAE model)	melting point [°C]	Hind paw thickness vs vehicle control (corn oil) [1]
Cc1cc2nc3c4ccccc4n(CCN(C)C)c3nc2cc1C [Compound B-220, 2,3-dimethyl-6-(N,N-dimethylaminoethyl)-6H-indolo(2,3-b)quinoxaline, reference compound]	2.2	3.1	3.0	2.8	promising compound	promising compound	–	–
Cc1cc2nc3c4cc(F)ccc4n(CC(=O)O)c3nc2cc1C [Compound L, 2,3-dimethyl-9-fluoro-indolo[2,3-b]quinoxaline-6-yl-acetic acid]	–	–	–	–	–	–	317 to 318	–
Cc1cc2nc3c4cc(F)ccc4n(CC(N)=O)c3nc2cc1C [Compound C, 2,3-Dimethyl-9-fluoro-indolo[2,3-b]quinoxaline-6-yl-acetamide]	2.2	3.1	3.0	2.8	–	–	316 to 319	–
Cc1cc2nc3c4cc(Cl)ccc4n(CC(=O)O)c3nc2cc1C [Compound K, 2,3-Dimethyl-9-chloro-indolo[2,3-b]quinoxaline-6-yl acetic acid]	–	–	–	–	–	–	331 to 332	–
C[C@@H]1C[C@H]2[C@@H]3CCC4=CC(=O)C=C[C@]4(C)[C@@]3(F)[C@@H](O)C[C@]2(C)[C@@]1(O)C(=O)CO [Dexamethasone, reference compound]	2.2	2.3	2.3	2.3	–	–	–	–
Cc1cc2nc3c4cc(F)ccc4n(CC(=O)NCCN)c3nc2cc1C [Compound H, 2,3-Dimethyl-6-(aminoethylamino-2-oxoethyl)-9-fluoro-6H-indolo[2,3-b]quinoxaline]	2.2	2.5	2.5	2.5	–	–	269 to 271	highly significant lower
Cc1cc2nc3c4cc(Cl)ccc4n(CC(=O)NCCN(C)C)c3nc2cc1C [Compound E, 9-Chloro-2,3-dimethyl-6-(N,N-dimethylaminoethylamino-2-oxoethyl)-6H-indolo-[2,3-b]quinoxaline]	2.2	2.3	2.3	2.3	–	–	–	highly significant lower
